Measurements: ChEMBL document CHEMBL5055665, “Discovery of the Triazolo[1,5-a]Pyrimidine-Based Derivative WS-898 as a Highly Efficacious and Orally Bioavailable ABCB1 Inhibitor Capable of Overcoming Multidrug Resistance” (J Med Chem, 2021)

Key:
[1] = tested on: SW-620; assay: Reversal of resistance to paclitaxel-induced cytotoxicity in human SW-620/AD300 cells assessed as reduction in paclitaxel IC50 at 2 uM preincubated for 4 hrs followed by paclitaxel addition and measured after 72 hrs by MTT assay (reference value: 4.23 +/- 0.50 uM); assay type: functional, cell-based
[2] = tested on: SW-620; assay: Reversal of resistance to paclitaxel-induced cytotoxicity in human SW-620/AD300 cells assessed as reversal fold at 2 uM preincubated for 4 hrs followed by paclitaxel addition and measured after 72 hrs by MTT assay relative to paclitaxel; assay type: functional; conditions: time 76 hrs
[3] = tested on: SW-620; assay: Reversal of resistance to paclitaxel-induced cytotoxicity in human SW-620/AD300 cells assessed as reduction in paclitaxel IC50 at 5 uM preincubated for 4 hrs followed by paclitaxel addition and measured after 72 hrs by MTT assay (reference value: 4.23 +/- 0.50 uM); assay type: functional, cell-based
[4] = tested on: SW-620; assay: Reversal of resistance to paclitaxel-induced cytotoxicity in human SW-620/AD300 cells assessed as reversal fold at 5 uM preincubated for 4 hrs followed by paclitaxel addition and measured after 72 hrs by MTT assay relative to paclitaxel; assay type: functional; conditions: time 76 hrs
[5] = tested on: SW-620; assay: Reversal of resistance to paclitaxel-induced cytotoxicity in human SW-620/AD300 cells assessed as reduction in paclitaxel IC50 at 1 uM preincubated for 4 hrs followed by paclitaxel addition and measured after 72 hrs by MTT assay (reference value: 4.23 +/- 0.50 uM); assay type: functional, cell-based
[6] = tested on: SW-620; assay: Reversal of resistance to paclitaxel-induced cytotoxicity in human SW-620/AD300 cells assessed as reversal fold at 1 uM preincubated for 4 hrs followed by paclitaxel addition and measured after 72 hrs by MTT assay relative to paclitaxel; assay type: functional; conditions: time 76 hrs
[7] = tested on: SW-620; assay: Reversal of resistance to paclitaxel-induced cytotoxicity in human SW-620/AD300 cells assessed as reduction in paclitaxel IC50 at 10 uM preincubated for 4 hrs followed by paclitaxel addition and measured after 72 hrs by MTT assay (reference value: 4.23 +/- 0.50 uM); assay type: functional, cell-based
[8] = tested on: SW-620; assay: Reversal of resistance to paclitaxel-induced cytotoxicity in human SW-620/AD300 cells assessed as reversal fold at 10 uM preincubated for 4 hrs followed by paclitaxel addition and measured after 72 hrs by MTT assay relative to paclitaxel; assay type: functional; conditions: time 76 hrs
[9] = tested on: SW-620; assay: Reversal of resistance to paclitaxel-induced cytotoxicity in human SW-620/AD300 cells assessed as reversal fold at 4 uM preincubated for 4 hrs followed by paclitaxel addition and measured after 72 hrs by MTT assay relative to paclitaxel; assay type: functional; conditions: time 76 hrs
[10] = tested on: SW-620; assay: cells; conditions: Homo sapiens

Cc1cc(Nc2ccc(C(=O)/C=C/c3ccc(C(F)(F)F)cc3)cc2)n2nc(SCc3nc4ccccc4[nH]3)nc2n1
IC50 [1]: 1850 nM
fold change (FC) [2]: 2.29

Cc1cc(Nc2ccc(C(=O)/C=C/c3ccc4ccccc4c3)cc2)n2nc(SCc3ccccc3[N+](=O)[O-])nc2n1
IC50 [3]: 960 nM
fold change (FC) [4]: 4.36

Cc1cc(Nc2ccc(C(=O)/C=C/c3ccc4ccccc4c3)cc2)n2nc(SCc3cccc(Br)c3)nc2n1
IC50 [3]: 270 nM
fold change (FC) [4]: 15.67

Cc1cc(Nc2ccc(C(=O)/C=C/c3ccc(Br)cn3)cc2)n2nc(SCc3nc4ccccc4[nH]3)nc2n1
IC50 [5]: 110 nM
fold change (FC) [6]: 39.09

C=CCSc1nc2nc(C)cc(Nc3ccc(C(=O)/C=C/c4ccc5ccccc5c4)cc3)n2n1
IC50 [7]: 920 nM
fold change (FC) [8]: 4.6

Cc1cc(Nc2ccc(C(=O)/C=C/c3ccc4ccccc4c3)cc2)n2nc(SCc3ccccc3)nc2n1
IC50 [3]: 300 nM
fold change (FC) [4]: 14.1

CCCSc1nc2nc(C)cc(Nc3ccc(C(=O)/C=C/c4ccc5ccccc5c4)cc3)n2n1
IC50 [7]: 1070 nM
fold change (FC) [8]: 3.95

Cc1cc(Nc2ccc(C(=O)/C=C/c3ccc4ccccc4c3)cc2)n2nc(SCc3cccc4ccccc34)nc2n1
IC50 [1]: 68 nM
fold change (FC) [2]: 62.21

C#CCSc1nc2nc(C)cc(Nc3ccc(C(=O)/C=C/c4ccc5ccccc5c4)cc3)n2n1
fold change (FC) [9]: 4.86
IC50 [10]: 870 nM

Cc1cc(Nc2ccc(C(=O)/C=C/c3cccc(F)c3)cc2)n2nc(SCc3nc4ccccc4[nH]3)nc2n1
IC50 [1]: 590 nM
fold change (FC) [2]: 7.17

Cc1cc(Nc2ccc(C(=O)/C=C/c3ccccc3Cl)cc2)n2nc(SCc3nc4ccccc4[nH]3)nc2n1
IC50 [1]: 680 nM
fold change (FC) [2]: 6.22

Cc1cc(Nc2ccc(C(=O)/C=C/c3ccc(OC(F)(F)F)cc3)cc2)n2nc(SCc3nc4ccccc4[nH]3)nc2n1
IC50 [1]: 220 nM
fold change (FC) [2]: 19.5

COc1ccc(/C=C/C(=O)c2ccc(Nc3cc(C)nc4nc(SCc5nc6ccccc6[nH]5)nn34)cc2)cc1
IC50 [1]: 170 nM
fold change (FC) [2]: 24.88

Cc1cc(Nc2ccc(C(=O)/C=C/c3ccc4ccccc4c3)cc2)n2nc(SCc3cccc([N+](=O)[O-])c3)nc2n1
IC50 [3]: 790 nM
fold change (FC) [4]: 5.35

Cc1cc(Nc2ccc(C(=O)/C=C/c3cccc(Cl)c3)cc2)n2nc(SCc3nc4ccccc4[nH]3)nc2n1
IC50 [1]: 400 nM
fold change (FC) [2]: 10.58

Cc1ccc(CSc2nc3nc(C)cc(Nc4ccc(C(=O)/C=C/c5ccc6ccccc6c5)cc4)n3n2)cc1
IC50 [3]: 880 nM
fold change (FC) [4]: 4.81

Cc1cc(Nc2ccc(C(=O)/C=C/c3ccc(Br)cc3)cc2)n2nc(SCc3nc4ccccc4[nH]3)nc2n1
IC50 [1]: 290 nM
fold change (FC) [2]: 14.59

Cc1cc(Nc2ccc(C(=O)/C=C/c3ccc4ccccc4c3)cc2)n2nc(SCc3ccc(Br)cc3)nc2n1
IC50 [3]: 370 nM
fold change (FC) [4]: 11.43

Cc1ccc(/C=C/C(=O)c2ccc(Nc3cc(C)nc4nc(SCc5nc6ccccc6[nH]5)nn34)cc2)cc1
IC50 [1]: 1520 nM
fold change (FC) [2]: 2.78

Cc1cc(Nc2ccc(C(=O)/C=C/c3ccc4ccccc4c3)cc2)n2nc(SCc3ccc(C(F)(F)F)cc3)nc2n1
IC50 [7]: 1450 nM
fold change (FC) [8]: 2.92

COc1cc(/C=C/C(=O)c2ccc(Nc3cc(C)nc4nc(SCc5nc6ccccc6[nH]5)nn34)cc2)cc(OC)c1OC
IC50 [5]: 75 nM
fold change (FC) [6]: 56.4

Cc1cc(Nc2ccc(C(=O)/C=C/c3ccccc3F)cc2)n2nc(SCc3nc4ccccc4[nH]3)nc2n1
IC50 [1]: 250 nM
fold change (FC) [2]: 16.92

Cc1cc(Nc2ccc(C(=O)/C=C/c3cccs3)cc2)n2nc(SCc3nc4ccccc4[nH]3)nc2n1
IC50 [1]: 820 nM
fold change (FC) [2]: 5.15

COc1ccc(CSc2nc3nc(C)cc(Nc4ccc(C(=O)/C=C/c5ccc6ccccc6c5)cc4)n3n2)cc1
IC50 [3]: 250 nM
fold change (FC) [4]: 16.92

O=C(/C=C/c1ccc2ccccc2c1)c1ccc(Nc2cc(-c3ccccc3)nc3ncnn23)cc1
IC50 [7]: 790 nM
fold change (FC) [8]: 5.35

Cc1cc(Nc2ccc(C(=O)/C=C/c3ccc4ccccc4c3)cc2)n2nc(SCc3ccccc3C(F)(F)F)nc2n1
IC50 [3]: 1240 nM
fold change (FC) [4]: 3.41

Cc1cc(Nc2ccc(C(=O)/C=C/c3ccc4c(c3)OC(F)(F)O4)cc2)n2nc(SCc3nc4ccccc4[nH]3)nc2n1
IC50 [5]: 240 nM
fold change (FC) [6]: 17.63

Cc1cc(Nc2ccc(C(=O)/C=C/c3ccc4ccccc4c3)cc2)n2nc(SCc3ccccc3Br)nc2n1
IC50 [3]: 420 nM
fold change (FC) [4]: 10.07

Cc1cc(Nc2ccc(C(=O)/C=C/c3ccc(-n4cccn4)cc3)cc2)n2nc(SCc3nc4ccccc4[nH]3)nc2n1
IC50 [1]: 340 nM
fold change (FC) [2]: 12.44

Cc1cc(Nc2ccc(C(=O)/C=C/c3ccc4ccccc4c3)cc2)n2nc(SCc3ccc(Cl)cc3)nc2n1
IC50 [3]: 570 nM
fold change (FC) [4]: 7.42

Cc1cc(Nc2ccc(C(=O)/C=C/c3ccc4ccccc4c3)cc2)n2ncnc2n1
IC50 [7]: 730 nM
fold change (FC) [8]: 5.79

O[C@@H](COc1cccc2ncccc12)CN1CCN([C@@H]2c3ccccc3[C@@H]3[C@H](c4ccccc42)C3(F)F)CC1 [ZOSUQUIDAR]
IC50 [1]: 59 nM
fold change (FC) [2]: 71.1

COc1cc(OC)c(/C=C/C(=O)c2ccc(Nc3cc(C)nc4nc(SCc5nc6ccccc6[nH]5)nn34)cc2)c(OC)c1
IC50 [5]: 260 nM
fold change (FC) [6]: 16.27

Cc1cc(Nc2ccc(C(=O)/C=C/c3ccc(F)cc3)cc2)n2nc(SCc3nc4ccccc4[nH]3)nc2n1
IC50 [1]: 85 nM
fold change (FC) [2]: 49.8

Cc1cc(Nc2ccc(C(=O)/C=C/c3ccc4ccccc4c3)cc2)n2nc(SCc3cccc(C(F)(F)F)c3)nc2n1
IC50 [3]: 2070 nM
fold change (FC) [4]: 2.04

Cc1cc(Nc2ccc(C(=O)/C=C/c3cccc(Br)n3)cc2)n2nc(SCc3nc4ccccc4[nH]3)nc2n1
IC50 [5]: 58 nM
fold change (FC) [6]: 72.93

Cc1cc(Nc2ccc(C(=O)/C=C/c3ccc(Cl)cc3)cc2)n2nc(SCc3nc4ccccc4[nH]3)nc2n1
IC50 [1]: 230 nM
fold change (FC) [2]: 18.39

Cc1cc(Nc2ccc(C(=O)/C=C/c3ccccc3)cc2)n2nc(SCc3nc4ccccc4[nH]3)nc2n1
IC50 [1]: 130 nM
fold change (FC) [2]: 32.54

Cc1cc(Nc2ccc(C(=O)/C=C/c3ccc(OC(F)(F)F)c(OC(F)(F)F)c3)cc2)n2nc(SCc3nc4ccccc4[nH]3)nc2n1
IC50 [5]: 120 nM
fold change (FC) [6]: 35.25

Cc1cc(Nc2ccc(C(=O)/C=C/c3ccc4ccccc4c3)cc2)n2nc(SCC(=O)c3ccccc3)nc2n1
IC50 [1]: 190 nM
fold change (FC) [2]: 22.26

Cc1cc(Nc2ccc(C(=O)/C=C/c3ccc4ccccc4c3)cc2)n2nc(SCc3ccc(F)cc3)nc2n1
IC50 [3]: 320 nM
fold change (FC) [4]: 13.22

COc1ccc(/C=C/C(=O)c2ccc(Nc3cc(C)nc4nc(SCc5nc6ccccc6[nH]5)nn34)cc2)cc1F
IC50 [1]: 140 nM
fold change (FC) [2]: 30.21

Cc1cc(Nc2ccc(C(=O)/C=C/c3ccc4ccccc4c3)cc2)n2nc(SCc3c(Cl)cccc3Cl)nc2n1
fold change (FC) [9]: 6.13
IC50 [10]: 690 nM

Cc1cc(Nc2ccc(C(=O)/C=C/c3ccc4ccccc4c3)cc2)n2nc(SC(=O)c3csc4ccc(Cl)cc34)nc2n1
IC50 [1]: 35 nM
fold change (FC) [2]: 120.86

Cc1cc(Nc2ccc(C(=O)/C=C/c3ccc4ccccc4c3)cc2)n2nc(SCc3ccc([N+](=O)[O-])cc3)nc2n1
IC50 [3]: 1130 nM
fold change (FC) [4]: 3.74
